This passage reports relative leaf area results from US9955689B2, “Method for promoting plant growth” (SUMITOMO CHEMICAL COMPANY, LIMITED, priority 2012, dated 2018).

This assay concerns Nicotiana benthamiana. Nature of the assay: Test Example 5: growth promotion under low-temperature stress by hydroponics of Nicotiana benthamiana (1 ppm). The format is in vivo. As to conditions: compound at 1 ppm, 7 days at 1.5±1.0° C. low-temperature stress, then 3 days at 22° C., 5 or greater = growth promotion effect, read-out: value of a relative leaf area (Equation (1), area of green leaf). The procedure: Test Example 5. Test for Evaluating Growth Promotion Under Low-Temperature Stress by Hydroponics of Nicotiana benthamiana
(Cultivation and Compound Treatment)
A DMSO solution, which contained one of the compounds 9, 10, 15, 16, 27 to 29, 31 to 37, 40, 44, 47, 48, 52, 55, 56, 58, 61, 63, 81, 87, 89, 92, 95, 98, 100, 102, 105, 108, 109, 111, 113, and 115 of the present invention at a concentration of 1,000 ppm, was prepared. The DMSO solution of the compound of the present invention was added at a volume ratio of 1/1,000 to the Murashige-Scoog medium of a ½-fold concentration (a medium containing 2.3 g of mixed salts (manufactured by Wako Pure Chemical Industries, Ltd.), 200 mg of Myo-inositol (manufactured by Sigme-Aldrich Co. LLC.), 2 mg of niconitic acid (manufactured by Wako Pure Chemical. Industries, Ltd.), 2 mg of pyridoxine hydrochloride (manufactured by Wako Pure Chemical Industries, Ltd.), 20 mg of thiamine hydrochloride (manufactured by Wako Pure Chemical Industries, Ltd.), 20 g of sucrose (manufactured by Wako Pure Chemical Industries, Ltd.), and 1 g of MES (manufactured by DOJINDO LABORATORIES) respectively per 1 L of water and having pH adjusted to 5.8), thereby preparing a medium containing the compound of the present invention at a concentration of 1 ppm.
Seeds of Nicotiana benthamiana were seeded in the 5 μL of the medium and cultured overnight at 22° C. Thereafter, 45 μL of the medium containing the compound of the present invention at a concentration of 1 ppm was added thereto, and the seeds are cultured for 7 days at 22° C. under the conditions of an illuminance of 4,000 lux, and a day length of 16 hours, and the seedlings raised from the Nicotiana benthamiana were treated with the compound. Moreover, instead of the above medium a test plot, which was obtained by performing the same treatment by using a medium prepared by adding DMSO to the Murashige⋅Scoog medium of ½-fold concentration at a volume ratio of 1/1,000, was used as a control plot not treated with the compound.
(Low-Temperature Stress Treatment)
The seedlings of the Nicotiana benthamiana treated with the compound were subjected to low-temperature treatment by being cultured for 7 days at 1.5±1.0° C., under the conditions of an illuminance of 2,000 lux, and a day length of 16 hours.
The seedlings of the Nicotiana benthamiana having undergone the low-temperature stress treatment were cultured for 3 days at 22° C. under the conditions of an illuminance of 4,000 lux, and a day length of 16 hours. Thereafter, the area of green leaf was quantified by Scanalyzer HTS (manufactured by LemnaTec GmbH). Moreover, the value of the control plot not treated with the compound that had not yet been subjected to the low-temperature stress treatment was measured in the same manner. A value of a relative leaf area was calculated based on the following equation (1), and if the relative value of leaf area was 5 or greater, the compound was evaluated to have a growth promotion effect. As a result of the evaluation, it was confirmed that when the plant was treated with one of the compounds 9, 10, 15, 16, 27 to 29, 31 to 37, 40, 44, 47, 48, 52, 55, 56, 58, 61, 63, 81, 87, 89, 92, 95, 98, 100, 102, 105, 108, 109, 111, 113, and 115 of the present invention at 1 ppm, the value of a relative leaf area was 5 or greater, compared to the area of green leaf of the control plot not treated with compound. Accordingly, it was confirmed that the treatment using the compound of the present invention improve a growth promotion effect. Relative leaf area=100*(a green area of a plot treated with the compound of the present invention minus(−) a green area of a plot not treated with the compound of the present invention)/(a green area of a control plot not treated with the compound of the present invention that had not yet been subjected to low-temperature stress treatment minus(−) a green area of a control plot not treated with the compound of the present invention) Equation (1): […]
Turning to `O=C(O)c1cc2c(Br)cccc2s1` [Present compound 10, 4-bromobenzo[b]thiophene-2-carboxylic acid], the relative leaf area at 1 ppm was no less than 5%.

For `O=C(O)c1cc2cc(I)ccc2s1` [Present compound 15, 5-iodobenzo[b]thiophene-2-carboxylic acid], the relative leaf area at 1 ppm was no less than 5%. On to `N#Cc1ccc2sc(C(=O)O)cc2c1` [Present compound 16, 5-cyanobenzo[b]thiophene-2-carboxylic acid], for which the relative leaf area at 1 ppm was no less than 5%.

`Cc1cccc(-c2cccc3cc(C(=O)O)sc23)c1` [Present compound 40, 7-(3-methylphenyl)benzo[b]thiophene-2-carboxylic acid]: the relative leaf area at 1 ppm was no less than 5%. Consider `O=C(O)c1cc2cc(-c3ccccn3)ccc2s1` [Present compound 44, 5-(2-pyridyl)benzo[b]thiophene-2-carboxylic acid], for which the relative leaf area at 1 ppm is no less than 5%. `O=C(O)c1cc2ccc(-c3ccc(C(F)(F)F)nc3)cc2s1` [Present compound 47, 6-(6-trifluoromethyl-3-pyridyl) benzo[b]thiophene-2-caboxylic acid]: the relative leaf area at 1 ppm was no less than 5%. Under `O=C(O)c1cc2cc(-c3ncccn3)ccc2s1` [Present compound 48, 5-(2-pyrimidinyl)benzo[b]thiophene-2-carboxylic acid] stands no less than 5%.

Consider `O=C(O)c1cc2c(C(=O)O)cccc2s1` [Present compound 52, benzo[b]thiophene-2,4-dicarboxylic acid], for which the relative leaf area at 1 ppm was no less than 5%. Under `CC(=O)c1ccc2sc(C(=O)O)cc2c1` [Present compound 56, 5-acetylbenzo[b]thiophene-2-carboxylic acid] stands no less than 5%. Take `O=C(O)c1cc2cc(C(=O)C(F)(F)F)ccc2s1` [Present compound 58, 5-(trifluoroacetyl)benzo[b]thiophene-2-carboxylic acid]: the relative leaf area at 1 ppm was no less than 5%. For the compound `Nc1ccc2sc(C(=O)O)cc2c1` [Present compound 61, 5-aminobenzo[b]thiophene-2-carboxylic acid], the relative leaf area at 1 ppm was no less than 5%.

For `Nc1c(C(=O)O)sc2ccccc12` [Present compound 63, 3-amino-benzo[b]thiophene-2-carboxylic acid], the relative leaf area at 1 ppm was no less than 5%. `COc1cccc2sc(C(=O)O)cc12` [Present compound 81, 4-methoxybenzo[b]thiophene-2-carboxylic acid]: the relative leaf area at 1 ppm was no less than 5%. Turning to `CC(C)Oc1c(C(=O)O)sc2ccccc12` [Present compound 87, 3-isopropoxybenzo[b]thiophene-2-carboxylic acid], the relative leaf area at 1 ppm is no less than 5%. In the case of `O=C(O)c1cc2cc(OC(F)(F)F)ccc2s1` [Present compound 89, 5-trifluoromethoxybenzo[b]thiophene-2-carboxylic acid] it was no less than 5%. Under `COc1cccc(COc2ccc3cc(C(=O)O)sc3c2)c1` [Present compound 92, 6-(3-methoxybenzyloxy)benzo[b]thiophene-2-carboxylic acid] stands no less than 5%. Under `O=C(O)c1cc2cccc(Oc3ccc(C(F)(F)F)cc3)c2s1` [Present compound 95, 7-(4-trifluoromethylphenoxy)benzo[b]thiophene-2-carboxylic acid] stands no less than 5%; under `O=C(O)c1cc2cc(SC(F)(F)F)ccc2s1` [Present compound 98, 5-(trifluoromethylthio)benzo[b]thiophene-2-carboxylic acid], no less than 5%.

Consider `O=C(O)c1cc2cc(S(=O)(=O)C(F)(F)F)ccc2s1` [Present compound 100, 5-(trifluoromethylsulfonyl)benzo[b]thiophene-2-carboxylic acid], for which the relative leaf area at 1 ppm is no less than 5%. Consider `O=C(O)c1cc2c(Cl)c(Cl)ccc2s1` [Present compound 102, 4,5-dichlorobenzo[b]thiophene-2-carboxylic acid], for which the relative leaf area at 1 ppm is no less than 5%. Regarding `O=C(O)c1sc2ccc(C(F)(F)F)cc2c1Cl` [Present compound 105, 3-chloro-5-trifluoromethylbenzo[b]thiophene-2-carboxylic acid], the relative leaf area at 1 ppm was no less than 5%. `Nc1c(C(=O)O)sc2ccc(C(F)(F)F)cc12` [Present compound 108, 3-amino-5-trifluoromethylbenzo[b]thiophene-2-carboxylic acid]: the relative leaf area at 1 ppm is no less than 5%. In the case of `CNc1c(C(=O)O)sc2ccc(C(F)(F)F)cc12` [Present compound 109, 3-(N-methylamino)-5-trifluoromethylbenzo[b]thiophene-2-carboxylic acid], the relative leaf area at 1 ppm is no less than 5%. Consider `O=C(O)c1sc2ccc(C(F)(F)F)cc2c1O` [Present compound 111, 3-hydroxy-5-trifluoromethylbenzo[b]thiophene-2-carboxylic acid], for which the relative leaf area at 1 ppm was no less than 5%. For `CCOc1c(C(=O)O)sc2ccc(C(F)(F)F)cc12` [Present compound 113, 3-ethoxy-5-trifluoromethylbenzo[b]thiophene-2-carboxylic acid], the relative leaf area at 1 ppm is no less than 5%. Under `O=C(O)c1sc2ccc(C(F)(F)F)cc2c1OCc1ccccc1` [Present compound 115, 3-benzyloxy-5-trifluoromethylbenzo[b]thiophene-2-carboxylic acid] stands no less than 5%.
